“Also recorded” adds a separate entry of the source.
Tests used:
[1] = tested on: vascular progenitor cells; test: Grafting of dye-eluting artificial grafts to canine common carotid artery (percentage stenosis, progenitor cell count); assay type: in vivo, beagle dogs; details: dye-eluting artificial graft, 3 months after grafting
Excerpt: In anesthetized beagle dogs, the bilateral sides of the neck were incised to expose both right and left common carotid arteries. An 8 F sheath was introduced into the right femoral artery through which a 8 F catheter was introduced into the aortic arch for angiography of the carotid arteries. A dye-eluting artificial graft was sutured to the common carotid arteries in side to end fashion to make a shunt between the right and left common carotid arteries. Then, a segment of right carotid artery proximal to and that of left distal to anastomoses were ligatured. Thus, the blood drained from the left to the right common carotid artery. Similarly in other group, grafts coated with bionate or Sanpren without dye were sutured to the arteries as control group. The dogs were cared for 3 months according to the guideline and angiography was repeated. Percentage stenosis of the sutured portion was compared between the dye and control groups. After cardiac arrest as mentioned above, the grafts and arteries were removed and were used for microscopic examinations.

[2] = tested on: vascular progenitor cells; test: Implantation of dye-eluting stents into canine coronary artery (percentage stenosis, angioscopy, progenitor cell count); assay type: in vivo, beagle dogs; details: for Number of cells (250 × 250 μm^2), Adventitia / Number of cells (250 × 250 μm^2), Intima / Number of cells (250 × 250 μm^2), Media: dye-eluting stent, stented coronary segment, one month after implantation
Description: Beagle dogs of either sex was anesthetized with pentobarbital sodium (25 mg/kg, i.v.) and trachea was intubated for artificial respiration with air. The right side of the neck was incised longitudinally to expose right common carotid artery. An 8F sheath was introduced into the artery through which an 8F guiding catheter was introduced into the left coronary artery. After coronary angiography, a balloon catheter clinically used for PTCA was introduced to dilate anterior descending artery. Then, a balloon catheter with a dye-eluting stent on it was introduced into the dilated segment of left anterior descending artery and it was inflated at 9 atms to implant the stent. After recovery from anesthesia, the dogs were cared according the guideline of Jikei University School of Medicine. One month later, the dogs were anesthetized again and coronary angiography and angioscopy (Uchida Y: Coronary Angioscopy, Futura Publishing Co, NY, 2000) were performed to examine the changes in the stented coronary segment. […] Thereafter, the dogs were sacrificed with intracoronary pentobarbital and the heart was removed. The heart was fixed with 10% hormaldehyde solution for microscopic examination.
The coronary angiograms were used for calibration of the percentage stenosis, namely (diameter before stent implantation-minimum luminal diameter/diameter before stent implantation)×100 of the narrowest portion (minimum luminal diameter) in the stent and was compared. Student's t test was used for statistical analysis and when P<0.05, the value was considered significant.
The stented coronary segment was removed and cut into slice in 5 μm in thickness. The slices were stained with beta-actin antibody and the number of vascular progenitor cells per unit area was counted and was compared between the dye and control groups.

[3] = Preliminary in vitro elution of dye from double-layer coated stent immersed in water; assay type: physicochemical
Description: a) A soft polycarbonate urethane with risin bionate (Bionate 80A, Polimertech, USA) was used. Evans blue powder was dissolved in the bionate to make 20% Evans blue solution. A commercially available coronary stent (NIR stent, 3 mm×12 mm or Palmatz-Schatz stent, 3 mm×12 mm) was immersed into the solution for 10 min to form slowly eluting inner layer. Then, the stent was dried at room temperature. Evans blue powder was dissolved in distilled water to make 20% solution. The same stent was immersed into the solution for 10 min to make rapidly eluting outer layer. The stent was dried at room temperature. Then, the stent was sterilized with ethylene oxide gas. In the preliminary experiment in vitro, Evans blue began to elute from the outer layer immediately after and ceased to elute within 60 min after immersion into water.

[4] = tested on: vascular progenitor cells; test: Local delivery of dyes by porous balloon into balloon-injured coronary artery; count of migrated vascular progenitor cells; assay type: in vivo, beagle dogs; details: dogs
Description: Adult beagle dogs of either sexes weighing from 7 to 12 kg were anesthetized with pentobarbital sodium (25-30 mg/kg, i.v.) and the trachea was intubated for artificial respiration with air. The right side of the neck was longitudinally incised to expose the right common carotid artery and an 8 F sheath was introduced, through which an 8F guiding catheter was introduced into the left coronary ostium for angiography. After angiography, a balloon catheter (2.5 mm×20 mm) was introduced through the guiding catheter into the middle to distal segment of either the anterior descending or circumflex artery. Then, the balloon was inflated at 9 atms to
dilate the segment to induced disruption of the endothelium and internal elastic lamina. The balloon catheter was replaced by a porous balloon catheter (3 mm×20 mm) with multiple pores in the balloon (Clinical Supply Co, Gifu, Japan) for local delivery of dyes. Thereafter, 0.2 ml of 5% Evans blue saline solution was injected through the porous balloon into the dilated segment at 3 atms in 6 dogs and 0.5 ml of 5% Ethidium bromide saline solution
was injected similarly in 5 dogs. […] The dilated coronary segment and its surrounding tissues were removed and sliced, vascular progenitor cells were stained with beta-smooth muscle actin antibody (DAKO EPOS, Glostrup, Denmark) and the number of vascular progenitor cells/250×250 μm^2 was counted.

Row | SMILES | Number of cells (250 × 250 μm^2), vascular progenitor cells at the anastomosed portion of the common carotid artery [1] | Number of cells (250 × 250 μm^2), Adventitia [2] | Number of cells (250 × 250 μm^2), Intima [2] | Number of cells (250 × 250 μm^2), Media [2] | Time at which elution from the outer (rapidly eluting) layer ceased ([3]; stent coated from 20% aqueous dye solution, after immersion into water) | Time at which elution from the inner (slowly eluting) layer began ([3]; stent coated from 20% dye in Bionate 80A, after immersion into water) | Duration of elution from the inner (slowly eluting) layer ([3]; stent coated from 20% dye in Bionate 80A, immersion into water) | Migration of circulating vascular progenitor cells into the injured coronary wall [4] | Percentage stenosis of the stented coronary segments ([2]; angiography, 4 weeks after implantation of dye-coated stents, vs stents without dye) | Angioscopic appearance of stenosis of the stented coronary segment ([2]; angioscopy, 4 weeks after stent implantation)
1 | CC[n+]1c(-c2ccccc2)c2cc(N)ccc2c2ccc(N)cc21 [Ethidium bromide] | 11.1 ± 3.1 /250 × 250 μm^2 | 21.3 ± 9.9 /250 × 250 μm^2 | 8.3 ± 3.7 /250 × 250 μm^2 | 9.6 ± 5.0 /250 × 250 μm^2 | – | – | – | – | – | –
2 | Cc1cc(-c2ccc(/N=N/c3ccc4c(S(=O)(=O)O)cc(S(=O)(=O)O)c(N)c4c3O)c(C)c2)ccc1/N=N/c1ccc2c(S(=O)(=O)O)cc(S(=O)(=O)O)c(N)c2c1O [Evans blue] | 13.4 ± 4.0 /250 × 250 μm^2 | 17.0 ± 7.1 /250 × 250 μm^2 | 7.1 ± 3.2 /250 × 250 μm^2 | 8.0 ± 4.0 /250 × 250 μm^2 | ≤ 60 min | 60 min | up to one month | no migration of the cells was observed; also recorded: inhibit migration | significantly smaller | stenosis was mild

Reference: patent US20030053952A1, “Therapeutic tool for vascular diseases” (Yasumi UCHIDA, priority 2001, published 2003)
